The values that follow are results of earlier work, collected in article PMC10386743, “Application of Ligand- and Structure-Based Prediction Models for the Design of Alkylhydrazide-Based HDAC3 Inhibitors as Novel Anti-Cancer Compounds” (Pharmaceuticals, 2023).

Molecules are shown by their SMILES. Read-outs that look alike come from different tables or passages of the source. Where only a bound is given, the exact number is not on record here.

The subject of one data set is recombinant human HDAC3. To be noted: recombinant human HDAC3, Boc-Lys(acetyl)-AMC.
Another data set concerns HDAC3. To be noted: for pIC50 HDAC3 (HDAC3 experimental pIC50): newly designed compounds; for activity on HDAC3 (in words): experimentally determined.

For the molecule `CCCCCCCCNNC(=O)c1ccc(CNC(=O)c2ccccc2)cc1` [Compound 53], in the data set with recombinant human HDAC3 (supplement prints Ref. [50]), the “pIC50 HDAC3 (HDAC3 experimental pIC50)” value was 5.96. Take `CCCNNC(=O)c1ccc(CNC(=O)c2cnc3ccccc3c2)cc1` [Compound 18]: the “pIC50 HDAC3 (HDAC3 experimental pIC50)” value with recombinant human HDAC3 (supplement Ref. [46]) was 8.75. As for `CCCNNC(=O)c1cccc(CNCCc2c(C)[nH]c3ccccc23)c1` [Compound 36], in the data set on recombinant human HDAC3 (supplement prints Ref. [48]), the “pIC50 HDAC3 (HDAC3 experimental pIC50)” value was 6.17. Regarding `CCCCNNC(=O)c1ccc2ccccc2c1` [Compound 37], the “pIC50 HDAC3 (HDAC3 experimental pIC50)” value in the data set with recombinant human HDAC3 (supplement prints Ref. [50]) is 6.05.

As to `CCCCCCNNC(=O)c1cnc(N2CCN(Cc3c[nH]c4ccccc34)CC2)nc1` [Compound 86], the “pIC50 HDAC3 (HDAC3 experimental pIC50)” value with HDAC3 is 7.00.

Regarding `CCCNNC(=O)c1ccc(CN(CCc2c(C)[nH]c3ccccc23)C(=O)OC(C)(C)C)cc1` [Compound 43], the “pIC50 HDAC3 (HDAC3 experimental pIC50)” value in the data set on recombinant human HDAC3 (supplement prints Ref. [48]) is recorded as 7.90. With `CCCNNC(=O)c1ccc(CNC(=O)c2cc3cc(O)ccc3o2)cc1` [Compound 40], the “pIC50 HDAC3 (HDAC3 experimental pIC50)” value with recombinant human HDAC3 (supplement Ref. [46]) was 9.29.

Consider `CCCCNNC(=O)CCc1ccccc1` [Compound 56], for which, in the data set with recombinant human HDAC3 (supplement prints Ref. [50]), the “pIC50 HDAC3 (HDAC3 experimental pIC50)” value was 5.72. As to `CCCNNC(=O)c1ccc(CNC(=O)c2cc3cc(OC)ccc3o2)cc1` [Compound 1], the “pIC50 HDAC3 (HDAC3 experimental pIC50)” value in the data set with recombinant human HDAC3 (supplement Ref. [46]) is on record as 9.55. Consider `CCCCCCNNC(=O)c1cnc(N2CCN(CCc3cn(C)c4ccccc34)CC2)nc1` [Compound 89], for which the “pIC50 HDAC3 (HDAC3 experimental pIC50)” value in the data set with HDAC3 is reported as 5.85. As to `CCCCCCNNC(=O)c1cnc(NCc2ccccc2)nc1` [Compound 83], in the data set on HDAC3, the “pIC50 HDAC3 (HDAC3 experimental pIC50)” value is given as 5.52. Regarding `CCCNNC(=O)c1ccc(CN(Cc2ccccc2)C(=O)OC(C)(C)C)cc1` [Compound 49], the “pIC50 HDAC3 (HDAC3 experimental pIC50)” value in the data set with recombinant human HDAC3 (supplement prints Ref. [48]) is on record as 7.11.

Turning to `CCCCNNC(=O)c1cnc(NCc2ccccc2)nc1` [Compound 73], the “pIC50 HDAC3 (HDAC3 experimental pIC50)” value in the data set with HDAC3 was 6.70.

With `O=C(NCc1ccc(C(=O)NNCCC(F)(F)F)cc1)c1ccccc1` [Compound 48], the “pIC50 HDAC3 (HDAC3 experimental pIC50)” value with recombinant human HDAC3 (supplement prints Ref. [50]) is 7.16. In the case of `CCCCCCNNC(=O)c1ccc(CNC(C)=O)cc1` [Compound 69], in the data set with HDAC3, the “activity on HDAC3 (in words)” value was “did not show significant activity” and the “pIC50 HDAC3 (HDAC3 experimental pIC50)” value is given as under 5.00. On to `CCCNNC(=O)c1ccc(CNC(=O)c2cc3cnccc3cn2)cc1` [Compound 19], for which the “pIC50 HDAC3 (HDAC3 experimental pIC50)” value with recombinant human HDAC3 (supplement Ref. [46]) is recorded as 8.69. As for `O=C(NCc1ccc(C(=O)NNCC2CC2)cc1)c1ccccc1` [Compound 29], the “pIC50 HDAC3 (HDAC3 experimental pIC50)” value with recombinant human HDAC3 (supplement prints Ref. [50]) is 7.40. As for `CCCNNC(=O)c1cnc(NCc2cc(Cl)ccc2Cl)nc1` [Compound 78], the “pIC50 HDAC3 (HDAC3 experimental pIC50)” value with HDAC3 is listed as 7.24. Turning to `CCCNNC(=O)c1cnc(NCCc2ccccc2)nc1` [Compound 74], in the data set with HDAC3 (1 µM), the “HDAC3 inhibition @1 µM” value is 41%@1 µM. The “HDAC3 inhibition @10uM” value with HDAC3 (10uM) is listed as 87%. Moreover, in the data set on HDAC3, the “activity on HDAC3 (in words)” value is “did not show significant inhibitory activity”. Regarding `CCCCCCNNC(=O)c1cnc(N2CCN(CCc3c[nH]c4ccccc34)CC2)nc1` [Compound 88], the “pIC50 HDAC3 (HDAC3 experimental pIC50)” value in the data set on HDAC3 is on record as 6.00. With `CCCNNC(=O)c1ccc(CNC(=O)c2cc3cc(F)ccc3[nH]2)cc1` [Compound 17], the “pIC50 HDAC3 (HDAC3 experimental pIC50)” value in the data set on recombinant human HDAC3 (supplement Ref. [46]) was 8.79.

`CCCCNNC(=O)c1ccc(CNC(=O)/C=C/c2ccccc2)cc1` [Compound 21]: the “pIC50 HDAC3 (HDAC3 experimental pIC50)” value with recombinant human HDAC3 (supplement prints Ref. [50]) is 8.44. Consider `CCCNNC(=O)c1ccc(CNC(=O)c2cc3cc(Br)ccc3[nH]2)cc1` [Compound 13], for which the “pIC50 HDAC3 (HDAC3 experimental pIC50)” value with recombinant human HDAC3 (supplement Ref. [46]) is recorded as 8.88.

With `CCCCNNC(=O)c1ccc(CNC(=O)c2ccccc2)cc1` [Compound 23], in the data set on recombinant human HDAC3 (supplement prints Ref. [50]), the “pIC50 HDAC3 (HDAC3 experimental pIC50)” value was 8.07. Regarding `CCCNNC(=O)c1ccc(CNC(=O)c2cc3cc(OC)ccc3[nH]2)cc1` [Compound 41], in the data set on recombinant human HDAC3 (supplement Ref. [46]), the “pIC50 HDAC3 (HDAC3 experimental pIC50)” value is given as 9.24. For `CCCNNC(=O)c1ccc(-c2ccc(CNC(C)=O)cc2)cc1` [Compound 64], the “pIC50 HDAC3 (HDAC3 experimental pIC50)” value in the data set on HDAC3 is 7.04. For the molecule `CCNNC(=O)c1ccc(CNC(=O)/C=C/c2ccccc2)cc1` [Compound 25], in the data set with recombinant human HDAC3 (supplement prints Ref. [50]), the “pIC50 HDAC3 (HDAC3 experimental pIC50)” value is 7.71. `CCCNNC(=O)/C=C/c1ccc(CN(CCc2c(C)[nH]c3ccccc23)C(=O)OC(C)(C)C)cc1` [Compound 44]: the “pIC50 HDAC3 (HDAC3 experimental pIC50)” value with recombinant human HDAC3 (supplement prints Ref. [48]) is given as 7.78.

Regarding `CCCNNC(=O)c1cnc(NCc2ccccc2Cl)nc1` [Compound 76], the “pIC50 HDAC3 (HDAC3 experimental pIC50)” value in the data set on HDAC3 is given as 7.22.

On to `Cc1[nH]c2ccccc2c1CCNCc1ccc(/C=C/C(=O)NNCCC#N)cc1` [Compound 45], for which the “pIC50 HDAC3 (HDAC3 experimental pIC50)” value in the data set on recombinant human HDAC3 (supplement prints Ref. [48]) was 7.46. Take `CC/C=N/NC(=O)c1ccc(CNC(=O)c2ccccc2)cc1` [Compound 62]: the “pIC50 HDAC3 (HDAC3 experimental pIC50)” value in the data set with recombinant human HDAC3 (supplement prints Ref. [50]) is under 5.00.

For `CCCCNNC(=O)c1ccc(-c2ccccc2)cc1` [Compound 47], the “pIC50 HDAC3 (HDAC3 experimental pIC50)” value in the data set with recombinant human HDAC3 (supplement prints Ref. [50]) is 7.17. Turning to `CCCNNC(=O)c1ccc(CNC(=O)c2ccc3cnccc3c2)cc1` [Compound 11], in the data set with recombinant human HDAC3 (supplement Ref. [46]), the “pIC50 HDAC3 (HDAC3 experimental pIC50)” value is 8.99. As to `CCCNNC(=O)c1ccc(CNC(=O)c2ccc3ccccc3n2)cc1` [Compound 9], the “pIC50 HDAC3 (HDAC3 experimental pIC50)” value with recombinant human HDAC3 (supplement Ref. [46]) is reported as 9.05. Regarding `CCNNC(=O)c1ccc(CNC(=O)c2ccccc2)cc1` [Compound 51], in the data set on recombinant human HDAC3 (supplement prints Ref. [50]), the “pIC50 HDAC3 (HDAC3 experimental pIC50)” value is 6.73. In the case of `CCCCCNNC(=O)c1ccc(CNC(=O)c2ccccc2)cc1` [Compound 24], the “pIC50 HDAC3 (HDAC3 experimental pIC50)” value in the data set with recombinant human HDAC3 (supplement prints Ref. [50]) is reported as 7.73.
